Read-outs that look alike come from different tables or passages of the source.
What was measured:
S. aureus^MS [1] = assay: MIC by broth microdilution (aerobic pathogens), test strain 1; type: cell-based; conditions: Staphylococcus aureus
Method: (§1) The antibacterial activity of the compounds of Examples 1 to 48 of the present invention against aerobic pathogens were evaluated by measuring the minimum concentration of the antibiotic capable of inhibiting bacterial growth by 90% compared to the growth of the non-drug treated control group. MIC was measured by the broth microdilution method based on CLSI standards [Reference: Clinical and Laboratory Standards Institute Document. (2000) Methods for Dilution Antimicrobial Susceptibility Test for Bacteria that Grow Aerobically-Fifth Edition: M7-A5. CLSI, Villanova, PA].
(§2) All 13 strains such as methicillin susceptible Staphylococcus aureus (MSSA), methicillin resistant Staphylococcus aureus (MRSA), Vancomycin resistant Staphylococcus aureus (VRSA), Staphylococcus epidermidis, methicillin resistant Staphylococcus epidermidis, Enterococcus faecalis, Vancomycin resistant Enterococcus faecalis, Enterococcus faecium, Vancomycin resistant Enterococcus faecium were used.

S. aureus^MS [2] = assay: MIC by broth microdilution (aerobic pathogens), test strain 2; type: cell-based; conditions: Staphylococcus aureus
Method: as §1, §2

S. aureus^VR = assay: MIC by broth microdilution (aerobic pathogens), test strain 4; type: cell-based, Vancomycin resistant Staphylococcus aureus; conditions: Staphylococcus aureus; test strain 4, S. aureus^VR (vancomycin resistant); read-out: MIC
Method: as §1, §2

S. epidermis = assay: MIC by broth microdilution (aerobic pathogens), test strain 5; type: cell-based; conditions: Staphylococcus epidermidis
Method: as §1, §2

S. epidermis^MR = assay: MIC by broth microdilution (aerobic pathogens), test strain 6; type: cell-based, Methicillin resistant Staphylococcus epidermidis; conditions: Staphylococcus epidermidis
Method: as §1, §2

E. faecalis = assay: MIC by broth microdilution (aerobic pathogens), test strain 7; type: cell-based; conditions: Enterococcus faecalis; test strain 7, E. faecalis; read-out: MIC
Method: as §1, §2

E. faecalis^VanA = assay: MIC by broth microdilution (aerobic pathogens), test strain 8; type: cell-based, Vancomycin resistant Enterococcus faecalis; conditions: Enterococcus faecalis; test strain 8, E. faecalis^VanA (vancomycin resistant); read-out: MIC
Method: as §1, §2

E. faecalis^LinR = assay: MIC by broth microdilution (aerobic pathogens), test strain 9; type: cell-based, Linezolid resistant Enterococcus faecalis; conditions: Enterococcus faecalis
Method: as §1, §2

E. faecium = assay: MIC by broth microdilution (aerobic pathogens), test strain 10; type: cell-based; conditions: Enterococcus faecium; test strain 10, E. faecium; read-out: MIC
Method: as §1, §2

E. faecium^VRE = assay: MIC by broth microdilution (aerobic pathogens), test strain 11; type: cell-based, Vancomycin resistant Enterococcus faecium; conditions: Enterococcus faecium; test strain 11, E. faecium^VRE (vancomycin resistant); read-out: MIC
Method: as §1, §2

E. faecium^LinR = assay: MIC by broth microdilution (aerobic pathogens), test strain 12; type: cell-based, Linezolid resistant Enterococcus faecium; conditions: Enterococcus faecium; test strain 12, E. faecium^LinR (linezolid resistant); read-out: MIC
Method: as §1, §2

C. difficile 9689 = assay: MIC by agar dilution against Clostridioides difficile, test strain 13; type: cell-based
C. difficile 152 = assay: MIC by agar dilution against Clostridioides difficile, test strain 14; type: cell-based
C. difficile 173 = assay: MIC by agar dilution against Clostridioides difficile, test strain 17; type: cell-based
C. difficile 174 = assay: MIC by agar dilution against Clostridioides difficile, test strain 18; type: cell-based
C. difficile 181 = assay: MIC by agar dilution against Clostridioides difficile, test strain 19; type: cell-based; conditions: test strain 19, C. difficile 181, anaerobic, agar dilution, read-out: MIC
C. difficile 159 = assay: MIC by agar dilution against Clostridioides difficile, test strain 15; type: cell-based
C. difficile 161 = assay: MIC by agar dilution against Clostridioides difficile, test strain 16; type: cell-based; conditions: test strain 16, C. difficile 161, anaerobic, agar dilution, read-out: MIC
M. abscessus = assay: MIC by resazurin (REMA) assay against Mycobacterium, test strain 23; type: cell-based; conditions: Mycobacteroides abscessus
Method: In order to test the antibacterial activity, the medium of Mycobacterium cultured to late log phase was diluted so as to be 4.0×10^5 cells/well in Middlebrook 7H10 agar medium (Difco) supplemented with 10% oleic acid, albumin, dextrose, catalase (OADC, Becton Dickinson) and 0.05% Tween 80 (Sigma Aldrich) and was dispensed into a 96-well plate. The compounds were treated so that DMSO was 1%, and after 3 days, a 0.025% resazurin (REMA) solution was dispensed, and the growth of the bacteria was confirmed after culturing. The MIC value was measured for the antibacterial activity through resazurin (excitation 530 nm, emission 590 nm).

[3] = test strain 1, S. aureus^MS, read-out: MIC
[4] = test strain 2, S. aureus^MS, read-out: MIC
[5] = test strain 5, S. epidermis, read-out: MIC
[6] = test strain 6, S. epidermis^MR (methicillin resistant), read-out: MIC
[7] = test strain 9, E. faecalis^LinR (linezolid resistant), read-out: MIC
[8] = test strain 13, C. difficile 9689, anaerobic, agar dilution, read-out: MIC
[9] = test strain 14, C. difficile 152, anaerobic, agar dilution, read-out: MIC
[10] = test strain 17, C. difficile 173, anaerobic, agar dilution, read-out: MIC
[11] = test strain 18, C. difficile 174, anaerobic, agar dilution, read-out: MIC
[12] = test strain 15, C. difficile 159, anaerobic, agar dilution, read-out: MIC

Measured: MIC

C/C=C1\NC(=O)[C@H]([C@@H](C)O)NC(=O)c2csc(n2)-c2ccc(-c3nc(-c4nc(C(=O)NC5(C(=O)NCC6OB(O)c7ccccc76)CC5)cs4)cs3)nc2-c2csc(n2)[C@H]([C@@H](C)O)NC(=O)c2csc(n2)[C@H](C(C)C)NC(=O)c2csc1n2 (some centres unmarked) [Compound 6]
0.25 µg/mL: S. aureus^MS [2]; [4] | E. faecium
0.06 µg/mL: C. difficile 152; [9] | C. difficile 173; [10] | C. difficile 174; [11] | C. difficile 181
1 µg/mL: S. aureus^VR | S. epidermis^MR; [6] | E. faecalis^VanA | E. faecium^VRE | C. difficile 9689; [8]
0.125 µg/mL: E. faecalis | E. faecalis^LinR; [7]
0.5 µg/mL: S. aureus^MS [1]; [3] | S. epidermis; [5] | E. faecium^LinR

C/C=C1\NC(=O)[C@H]([C@@H](C)O)NC(=O)c2csc(n2)-c2ccc(-c3nc(-c4nc(C(=O)NC5(C(=O)NCCn6c([N+](=O)[O-])cnc6C)CC5)cs4)cs3)nc2-c2csc(n2)[C@H]([C@@H](C)O)NC(=O)c2csc(n2)[C@H](C(C)C)NC(=O)c2csc1n2 [Compound 11]
0.5 µg/mL: S. aureus^MS [1]; [3] | S. aureus^MS [2]; [4] | S. epidermis^MR; [6] | E. faecalis^LinR; [7] | C. difficile 159; [12] | C. difficile 161
1 µg/mL: E. faecalis^VanA | E. faecium | C. difficile 9689; [8]
0.125 µg/mL: S. epidermis; [5] | C. difficile 173; [10] | C. difficile 174; [11] | C. difficile 181
0.25 µg/mL: E. faecalis | C. difficile 152; [9]

C/C=C1\NC(=O)[C@H]([C@@H](C)O)NC(=O)c2csc(n2)-c2ccc(-c3nc(-c4nc(C(=O)NC5(C(=O)NCCCCB(O)O)CC5)cs4)cs3)nc2-c2csc(n2)[C@H]([C@@H](C)O)NC(=O)c2csc(n2)[C@H](C(C)C)NC(=O)c2csc1n2 [Compound 20]
0.25 µg/mL: S. aureus^MS [1]; [3] | E. faecalis^LinR; [7] | C. difficile 9689; [8] | C. difficile 152; [9] | C. difficile 174; [11]
0.5 µg/mL: S. epidermis; [5] | S. epidermis^MR; [6] | E. faecalis | E. faecium | C. difficile 159; [12] | C. difficile 173; [10]
0.125 µg/mL: S. aureus^MS [2]; [4]
1 µg/mL: E. faecium^VRE | E. faecium^LinR | C. difficile 161 | C. difficile 181

C/C=C1\NC(=O)[C@H]([C@@H](C)O)NC(=O)c2csc(n2)-c2ccc(-c3nc(-c4nc(C(=O)NC5(C(=O)NN6CC(=O)NC6=O)CC5)cs4)cs3)nc2-c2csc(n2)[C@H]([C@@H](C)O)NC(=O)c2csc(n2)[C@H](C(C)C)NC(=O)c2csc1n2 [Compound 23]
1 µg/mL: S. epidermis | S. epidermis^MR | E. faecalis^LinR | C. difficile 173; 173
0.125 µg/mL: C. difficile 174; 174
0.25 µg/mL: C. difficile 9689; 9689 | C. difficile 152; 152
0.226 µg/mL: M. abscessus
0.5 µg/mL: S. aureus^MS [1] | S. aureus^MS [2] | C. difficile 159; 159

C/C=C1\NC(=O)[C@H]([C@@H](C)O)NC(=O)c2csc(n2)-c2ccc(-c3nc(-c4nc(C(=O)NC5(C(=O)NCCn6cnc([N+](=O)[O-])n6)CC5)cs4)cs3)nc2-c2csc(n2)[C@H]([C@@H](C)O)NC(=O)c2csc(n2)[C@H](C(C)C)NC(=O)c2csc1n2 [Compound 38]
1 µg/mL: S. aureus^MS [1]; [3] | S. aureus^MS [2]; [4] | S. aureus^VR | S. epidermis; [5] | S. epidermis^MR; [6] | E. faecalis^VanA | E. faecium^VRE | E. faecium^LinR
0.5 µg/mL: E. faecium

C/C=C1\NC(=O)[C@H]([C@@H](C)O)NC(=O)c2csc(n2)-c2ccc(-c3nc(-c4nc(C(=O)NC5(C(=O)NCCn6ccnc6[N+](=O)[O-])CC5)cs4)cs3)nc2-c2csc(n2)[C@H]([C@@H](C)O)NC(=O)c2csc(n2)[C@H](C(C)C)NC(=O)c2csc1n2 [Compound 39]
0.25 µg/mL: C. difficile 9689; [8] | C. difficile 152; [9] | C. difficile 161
0.5 µg/mL: C. difficile 173; [10] | C. difficile 181
1 µg/mL: C. difficile 159; [12] | C. difficile 174; [11]

C/C=C(\NC(=O)c1csc(-c2csc(-c3ccc4c(n3)-c3csc(n3)[C@H]([C@@H](C)O)NC(=O)c3csc(n3)[C@H](C(C)C)NC(=O)c3csc(n3)/C(=C/C)NC(=O)[C@H]([C@@H](C)O)NC(=O)c3csc-4n3)n2)n1)C(=O)NCCn1cc([N+](=O)[O-])nc1C [Compound 41]
1 µg/mL: C. difficile 181
0.5 µg/mL: C. difficile 9689; [8] | C. difficile 159; [12] | C. difficile 173; [10]
0.25 µg/mL: C. difficile 152; [9] | C. difficile 161 | C. difficile 174; [11]

C/C=C(\NC(=O)c1csc(-c2csc(-c3ccc4c(n3)-c3csc(n3)[C@H]([C@@H](C)O)NC(=O)c3csc(n3)[C@H](C(C)C)NC(=O)c3csc(n3)/C(=C/C)NC(=O)[C@H]([C@@H](C)O)NC(=O)c3csc-4n3)n2)n1)C(=O)NCCn1ccnc1[N+](=O)[O-] [Compound 43]
1 µg/mL: C. difficile 173; [10]
0.5 µg/mL: C. difficile 9689; [8] | C. difficile 152; [9] | C. difficile 159; [12] | C. difficile 161 | C. difficile 174; [11] | C. difficile 181

C/C=C1\NC(=O)[C@H]([C@@H](C)O)NC(=O)c2csc(n2)-c2ccc(-c3nc(-c4nc(C(=O)NC5(C(=O)NCCn6cc([N+](=O)[O-])nc6C)CC5)cs4)cs3)nc2-c2csc(n2)[C@H]([C@@H](C)O)NC(=O)c2csc(n2)[C@H](C(C)C)NC(=O)c2csc1n2 [Compound 45]
1 µg/mL: C. difficile 173; [10] | C. difficile 181
0.5 µg/mL: C. difficile 9689; [8] | C. difficile 152; [9] | C. difficile 159; [12] | C. difficile 161 | C. difficile 174; [11]

From patent US12637478B2, “Compound, preparation method thereof, and antibiotic composition comprising same” (priority 2020, dated 2026)
